Assay results: BigSolDB 2.1

CC(=O)N1CCN(c2ccc(OC[C@@H]3CO[C@@](Cn4ccnc4)(c4ccc(Cl)cc4Cl)O3)cc2)CC1 (racemic)
solubility (mole fraction)
Conditions | 293.2 K | 298.2 K | 303.2 K | 308.2 K | 313.2 K
in isopropanol | 0.000774 | 0.00102 | 0.00136 | 0.00204 | 0.00291
in propylene glycol | 0.00148 | 0.00195 | 0.00264 | 0.0039 | 0.00562
